ChEMBL document CHEMBL4024706 (Eur J Med Chem, 2017)

Columns and labels:
[1] = target: Tyrosine-protein kinase JAK3 (Homo sapiens) (UniProt P52333); assay: Inhibition of wild-type human partial length JAK3 JH1 catalytic domain (I781 to S1124 residues) expressed in mammalian expression system assessed as residual activity at 1 uM by Kinomescan method relative to control
NB-4 = assay: Growth inhibition of human NB4 cells; format: functional; conditions: Homo sapiens, NB-4
[2] = target: Maternal embryonic leucine zipper kinase (Homo sapiens) (UniProt Q14680); assay: Inhibition of wild-type human full length MELK (M1 to V651 residues) expressed in bacterial expression system assessed as residual activity at 1 uM by Kinomescan method relative to control
[3] = target: Receptor tyrosine-protein kinase erbB-4 (Homo sapiens) (UniProt Q15303); assay: Inhibition of wild-type human partial length ERBB4 (L690 to K994 residues) expressed in bacterial expression system assessed as residual activity at 1 uM by Kinomescan method relative to control
[4] = target: Citron Rho-interacting kinase (Homo sapiens) (UniProt O14578); assay: Inhibition of wild-type human partial length CIT (M68 to E432 residues) expressed in bacterial expression system assessed as residual activity at 1 uM by Kinomescan method relative to control
[5] = target: Inhibitor of nuclear factor kappa-B kinase subunit alpha (Homo sapiens) (UniProt O15111); assay: Inhibition of wild-type human full length IKK-alpha (M1 to E745 residues) expressed in mammalian expression system assessed as residual activity at 1 uM by Kinomescan method relative to control
[6] = target: TRAF2 and NCK-interacting protein kinase (Homo sapiens) (UniProt Q9UKE5); assay: Inhibition of wild-type human partial length TNIK (D4 to K311 residues) expressed in bacterial expression system assessed as residual activity at 1 uM by Kinomescan method relative to control
[7] = target: 3-phosphoinositide-dependent protein kinase 1 (Homo sapiens) (UniProt O15530); assay: Inhibition of wild-type human full length PDPK1 (M1 to Q556 residues) expressed in bacterial expression system assessed as residual activity at 1 uM by Kinomescan method relative to control
[8] = test system: Epidermal growth factor receptor (Homo sapiens), P00533 [G719S]; assay: Inhibition of human partial length EGFR G719S mutant (R669 to V1011 residues) expressed in bacterial expression system assessed as residual activity at 1 uM by Kinomescan method relative to control
[9] = test system: Receptor-type tyrosine-protein kinase FLT3 (Homo sapiens), P36888 [N841I]; assay: Inhibition of human partial length FLT3 N841I mutant (V592 to Y969 residues) expressed in bacterial expression system assessed as residual activity at 1 uM by Kinomescan method relative to control
[10] = target: Cyclin-dependent kinase-like 3 (Homo sapiens) (UniProt Q8IVW4); assay: Inhibition of wild-type human partial length CDKL3 (M1 to D327 residues) expressed in bacterial expression system assessed as residual activity at 1 uM by Kinomescan method relative to control
[11] = target: CDK4/Cyclin D3 (Homo sapiens) (UniProt P11802+P30281); assay: Inhibition of wild-type human full length CDK4/cyclinD3 (M1 to E303 residues) expressed in mammalian expression system assessed as residual activity at 1 uM by Kinomescan method relative to control
[12] = target: Dual specificity protein kinase CLK1 (Homo sapiens) (UniProt P49759); assay: Inhibition of wild-type human full length CLK1 (M1 to I484 residues) expressed in bacterial expression system assessed as residual activity at 1 uM by Kinomescan method relative to control
[13] = target: Epidermal growth factor receptor (Homo sapiens, UniProt P00533); assay: Inhibition of wild-type human partial length EGFR (R669 to V1011 residues) expressed in bacterial expression system assessed as residual activity at 1 uM by Kinomescan method relative to control
[14] = target: Tyrosine-protein kinase ZAP-70 (Homo sapiens) (UniProt P43403); assay: Inhibition of wild-type human partial length ZAP70 (D20 to G299 residues) expressed in mammalian expression system assessed as residual activity at 1 uM by Kinomescan method relative to control
[15] = target: Receptor tyrosine-protein kinase erbB-2 (Homo sapiens) (UniProt P04626); assay: Inhibition of wild-type human partial length ERBB2 (K646 to V1225 residues) expressed in mammalian expression system assessed as residual activity at 1 uM by Kinomescan method relative to control
[16] = target: Tyrosine-protein kinase Fer (Homo sapiens) (UniProt P16591); assay: Inhibition of wild-type human partial length FER (S542 to T822 residues) expressed in bacterial expression system assessed as residual activity at 1 uM by Kinomescan method relative to control
[17] = target: Mitogen-activated protein kinase kinase kinase kinase 3 (Homo sapiens) (UniProt Q8IVH8); assay: Inhibition of wild-type human partial length MAP4K3 (M1 to D301 residues) expressed in bacterial expression system assessed as residual activity at 1 uM by Kinomescan method relative to control
[18] = target: Cyclin-dependent kinase 7 (Homo sapiens) (UniProt P50613); assay: Inhibition of wild-type human full length CDK7 (M1 to L344 residues) expressed in mammalian expression system assessed as residual activity at 1 uM by Kinomescan method relative to control
[19] = target: Non-receptor tyrosine-protein kinase TYK2 (Homo sapiens) (UniProt P29597); assay: Inhibition of wild-type human partial length TYK2 JH1 catalytic domain (V877 to C1187 residues) expressed in mammalian expression system assessed as residual activity at 1 uM by Kinomescan method relative to control
[20] = test system: Tyrosine-protein kinase ABL1 (Homo sapiens), P00519 [F317L]; assay: Inhibition of human non-phosphorylated ABL1 F317L mutant (S229 to K512 residues) expressed in mammalian expression system assessed as residual activity at 1 uM by Kinomescan method relative to control
[21] = target: Serine/threonine-protein kinase PAK 3 (Homo sapiens) (UniProt O75914); assay: Inhibition of wild-type human full length PAK3 (M1 to R544 residues) expressed in bacterial expression system assessed as residual activity at 1 uM by Kinomescan method relative to control
[22] = target: MAP kinase-interacting serine/threonine-protein kinase 1 (Homo sapiens) (UniProt Q9BUB5); assay: Inhibition of wild-type human full length MKNK1 (M1 to L424 residues) expressed in mammalian expression system assessed as residual activity at 1 uM by Kinomescan method relative to control
[23] = target: cGMP-dependent protein kinase 1 (Homo sapiens) (UniProt Q13976); assay: Inhibition of wild-type human partial length PRKG1 (L339 to F686 residues) expressed in bacterial expression system assessed as residual activity at 1 uM by Kinomescan method relative to control
[24] = target: Mitogen-activated protein kinase kinase kinase 6 (Homo sapiens) (UniProt O95382); assay: Inhibition of wild-type human partial length ASK2 (M278 to R972 residues) expressed in mammalian expression system assessed as residual activity at 1 uM by Kinomescan method relative to control

Cyclin-dependent kinase-like 3 (Homo sapiens), sequence (Q8IVW4 whole entry, looked up, the tested form may be a part): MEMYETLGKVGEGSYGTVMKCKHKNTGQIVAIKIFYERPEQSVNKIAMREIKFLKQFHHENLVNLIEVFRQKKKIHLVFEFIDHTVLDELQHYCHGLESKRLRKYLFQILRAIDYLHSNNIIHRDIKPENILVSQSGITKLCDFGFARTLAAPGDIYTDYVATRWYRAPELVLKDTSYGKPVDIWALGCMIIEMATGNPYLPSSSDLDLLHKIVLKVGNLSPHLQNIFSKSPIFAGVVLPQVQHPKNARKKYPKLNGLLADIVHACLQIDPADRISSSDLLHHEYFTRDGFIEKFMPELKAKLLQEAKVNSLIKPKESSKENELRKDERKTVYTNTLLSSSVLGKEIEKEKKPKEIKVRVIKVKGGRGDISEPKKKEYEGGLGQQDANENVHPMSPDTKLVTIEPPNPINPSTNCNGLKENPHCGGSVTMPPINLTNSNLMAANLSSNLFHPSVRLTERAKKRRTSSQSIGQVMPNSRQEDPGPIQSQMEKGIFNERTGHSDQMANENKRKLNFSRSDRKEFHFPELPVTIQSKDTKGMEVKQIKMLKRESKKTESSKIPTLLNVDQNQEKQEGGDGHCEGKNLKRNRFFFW
Tyrosine-protein kinase JAK3 (Homo sapiens), sequence (P52333 whole entry, the tested form may be a part): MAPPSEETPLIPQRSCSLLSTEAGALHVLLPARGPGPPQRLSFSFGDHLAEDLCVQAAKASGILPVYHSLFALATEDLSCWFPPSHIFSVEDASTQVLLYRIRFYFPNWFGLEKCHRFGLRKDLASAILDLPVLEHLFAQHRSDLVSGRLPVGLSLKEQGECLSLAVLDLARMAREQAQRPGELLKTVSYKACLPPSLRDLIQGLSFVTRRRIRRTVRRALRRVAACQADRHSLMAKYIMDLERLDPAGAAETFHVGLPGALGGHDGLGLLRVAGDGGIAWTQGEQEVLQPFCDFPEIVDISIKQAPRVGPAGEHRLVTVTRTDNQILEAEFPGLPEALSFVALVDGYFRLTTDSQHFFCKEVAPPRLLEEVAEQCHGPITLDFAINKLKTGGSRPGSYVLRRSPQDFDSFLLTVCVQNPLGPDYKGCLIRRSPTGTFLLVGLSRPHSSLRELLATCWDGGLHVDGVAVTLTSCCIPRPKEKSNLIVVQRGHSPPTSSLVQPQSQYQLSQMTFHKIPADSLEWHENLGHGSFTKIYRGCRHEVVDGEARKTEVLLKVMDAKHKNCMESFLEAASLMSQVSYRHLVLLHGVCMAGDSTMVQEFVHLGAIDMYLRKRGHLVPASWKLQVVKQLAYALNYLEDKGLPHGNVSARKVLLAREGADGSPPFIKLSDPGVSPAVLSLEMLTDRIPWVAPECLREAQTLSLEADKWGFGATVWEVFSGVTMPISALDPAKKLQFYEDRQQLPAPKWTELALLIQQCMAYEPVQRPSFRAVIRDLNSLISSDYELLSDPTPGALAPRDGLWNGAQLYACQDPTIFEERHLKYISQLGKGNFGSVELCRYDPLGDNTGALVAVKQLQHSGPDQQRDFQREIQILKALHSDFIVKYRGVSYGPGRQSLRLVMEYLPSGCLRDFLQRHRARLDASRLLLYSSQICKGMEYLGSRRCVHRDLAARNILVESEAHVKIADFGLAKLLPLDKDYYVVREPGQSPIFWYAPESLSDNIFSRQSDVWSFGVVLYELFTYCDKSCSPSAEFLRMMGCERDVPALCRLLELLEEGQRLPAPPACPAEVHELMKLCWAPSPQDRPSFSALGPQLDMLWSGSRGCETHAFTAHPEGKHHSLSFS
Receptor tyrosine-protein kinase erbB-2 (Homo sapiens), sequence (P04626 whole entry, the tested form may be a part): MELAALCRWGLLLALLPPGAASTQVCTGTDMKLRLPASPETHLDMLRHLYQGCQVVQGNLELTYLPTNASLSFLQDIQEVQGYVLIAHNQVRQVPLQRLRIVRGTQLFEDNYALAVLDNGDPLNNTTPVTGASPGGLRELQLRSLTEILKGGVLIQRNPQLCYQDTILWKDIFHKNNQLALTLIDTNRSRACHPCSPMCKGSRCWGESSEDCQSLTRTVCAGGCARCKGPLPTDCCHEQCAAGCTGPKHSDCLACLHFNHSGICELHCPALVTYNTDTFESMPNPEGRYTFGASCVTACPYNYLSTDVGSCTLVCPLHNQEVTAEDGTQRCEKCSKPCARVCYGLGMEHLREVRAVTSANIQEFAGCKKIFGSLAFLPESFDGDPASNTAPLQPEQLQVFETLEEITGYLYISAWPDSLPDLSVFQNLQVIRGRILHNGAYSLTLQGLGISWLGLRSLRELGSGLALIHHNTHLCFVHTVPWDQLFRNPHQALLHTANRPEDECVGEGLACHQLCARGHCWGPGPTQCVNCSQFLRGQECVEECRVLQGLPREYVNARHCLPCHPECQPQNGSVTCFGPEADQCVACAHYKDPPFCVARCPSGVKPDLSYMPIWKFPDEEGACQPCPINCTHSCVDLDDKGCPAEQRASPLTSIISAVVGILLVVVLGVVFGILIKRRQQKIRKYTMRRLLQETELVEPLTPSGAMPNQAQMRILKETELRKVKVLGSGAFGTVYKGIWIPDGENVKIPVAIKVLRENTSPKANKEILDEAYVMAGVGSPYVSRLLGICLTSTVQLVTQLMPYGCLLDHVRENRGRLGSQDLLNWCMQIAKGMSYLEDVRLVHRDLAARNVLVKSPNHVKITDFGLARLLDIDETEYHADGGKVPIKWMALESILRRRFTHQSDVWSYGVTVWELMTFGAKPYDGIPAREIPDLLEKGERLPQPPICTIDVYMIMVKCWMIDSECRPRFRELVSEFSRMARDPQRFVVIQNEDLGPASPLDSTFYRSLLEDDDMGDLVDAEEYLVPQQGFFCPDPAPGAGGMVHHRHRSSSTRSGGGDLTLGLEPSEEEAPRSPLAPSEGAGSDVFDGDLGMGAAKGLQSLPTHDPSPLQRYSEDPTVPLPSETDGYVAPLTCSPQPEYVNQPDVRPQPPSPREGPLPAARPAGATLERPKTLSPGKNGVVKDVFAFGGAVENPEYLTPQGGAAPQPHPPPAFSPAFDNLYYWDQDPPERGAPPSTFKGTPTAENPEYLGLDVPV
Receptor tyrosine-protein kinase erbB-4 (Homo sapiens), sequence (Q15303 whole entry, the tested form may be a part): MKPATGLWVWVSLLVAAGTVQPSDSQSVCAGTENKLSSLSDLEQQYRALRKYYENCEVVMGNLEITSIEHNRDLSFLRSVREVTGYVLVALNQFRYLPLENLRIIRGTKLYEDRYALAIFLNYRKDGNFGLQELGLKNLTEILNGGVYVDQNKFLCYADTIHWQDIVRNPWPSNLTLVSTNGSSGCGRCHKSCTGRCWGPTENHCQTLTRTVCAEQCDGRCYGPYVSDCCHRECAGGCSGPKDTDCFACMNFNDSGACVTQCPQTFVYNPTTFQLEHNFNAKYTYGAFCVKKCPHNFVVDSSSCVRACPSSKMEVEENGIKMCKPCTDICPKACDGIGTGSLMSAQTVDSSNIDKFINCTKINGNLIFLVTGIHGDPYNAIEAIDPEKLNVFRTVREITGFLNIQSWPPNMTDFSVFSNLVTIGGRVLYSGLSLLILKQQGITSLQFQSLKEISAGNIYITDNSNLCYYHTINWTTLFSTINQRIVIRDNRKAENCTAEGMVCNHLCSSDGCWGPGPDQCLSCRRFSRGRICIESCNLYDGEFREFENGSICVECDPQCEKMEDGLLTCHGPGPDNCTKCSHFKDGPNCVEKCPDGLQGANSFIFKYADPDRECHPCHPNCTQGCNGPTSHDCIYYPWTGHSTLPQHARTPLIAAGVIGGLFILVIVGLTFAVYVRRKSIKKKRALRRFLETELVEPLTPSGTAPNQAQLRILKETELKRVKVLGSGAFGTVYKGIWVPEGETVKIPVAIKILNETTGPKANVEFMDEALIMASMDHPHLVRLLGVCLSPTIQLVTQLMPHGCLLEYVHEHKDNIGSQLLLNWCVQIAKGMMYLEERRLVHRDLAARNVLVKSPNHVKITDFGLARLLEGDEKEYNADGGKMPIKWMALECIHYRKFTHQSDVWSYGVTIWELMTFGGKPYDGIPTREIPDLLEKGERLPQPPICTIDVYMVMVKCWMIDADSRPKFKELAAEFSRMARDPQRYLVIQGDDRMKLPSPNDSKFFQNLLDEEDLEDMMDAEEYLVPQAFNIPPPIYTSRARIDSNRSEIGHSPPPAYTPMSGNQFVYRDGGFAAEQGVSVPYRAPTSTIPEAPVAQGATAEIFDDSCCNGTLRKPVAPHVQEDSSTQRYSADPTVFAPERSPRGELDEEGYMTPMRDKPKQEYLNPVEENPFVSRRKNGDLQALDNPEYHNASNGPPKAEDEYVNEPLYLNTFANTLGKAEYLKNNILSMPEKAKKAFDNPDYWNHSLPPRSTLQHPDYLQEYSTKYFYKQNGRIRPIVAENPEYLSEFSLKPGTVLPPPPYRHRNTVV
Tyrosine-protein kinase ZAP-70 (Homo sapiens), sequence (P43403 whole entry, the tested form may be a part): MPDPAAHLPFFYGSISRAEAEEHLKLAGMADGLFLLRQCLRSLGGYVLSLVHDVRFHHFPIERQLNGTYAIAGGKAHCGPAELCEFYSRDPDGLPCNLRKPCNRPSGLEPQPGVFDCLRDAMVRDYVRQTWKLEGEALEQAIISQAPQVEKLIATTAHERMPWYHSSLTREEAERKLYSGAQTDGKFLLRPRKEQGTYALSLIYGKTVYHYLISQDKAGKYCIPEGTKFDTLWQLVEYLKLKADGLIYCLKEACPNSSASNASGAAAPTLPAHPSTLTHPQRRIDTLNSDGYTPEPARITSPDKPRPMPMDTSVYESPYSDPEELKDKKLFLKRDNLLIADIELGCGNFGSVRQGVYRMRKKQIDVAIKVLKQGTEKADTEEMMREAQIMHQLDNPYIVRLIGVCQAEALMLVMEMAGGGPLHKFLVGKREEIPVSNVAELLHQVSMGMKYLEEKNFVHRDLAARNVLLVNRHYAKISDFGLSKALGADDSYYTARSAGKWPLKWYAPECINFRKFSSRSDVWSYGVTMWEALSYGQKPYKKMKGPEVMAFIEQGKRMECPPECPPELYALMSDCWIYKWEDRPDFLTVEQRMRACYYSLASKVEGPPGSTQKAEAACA

## C=CC(=O)Nc1cc(Nc2cc(-c3cccc(NC(=O)c4ccc(C(C)(C)C)cc4)c3C)cn(C)c2=O)ccc1C(=O)N1CCOCC1
[1]
  Activity: 79%
NB-4
  GI50: 6.6 µM
[2]
  Activity: 98%
[3]
  Activity: 95%
[4]
  Activity: 97%
[5]
  Activity: 100%
[6]
  Activity: 97%
[7]
  Activity: 90%
[8]
  Activity: 100%
[9]
  Activity: 100%
[10]
  Activity: 91%
[11]
  Activity: 100%
[12]
  Activity: 97%
[13]
  Activity: 92%
[14]
  Activity: 100%
[15]
  Activity: 97%
[16]
  Activity: 99%
[17]
  Activity: 95%
[18]
  Activity: 89%
[19]
  Activity: 74%
[20]
  Activity: 88%
[21]
  Activity: 71%
[22]
  Activity: 91%
[23]
  Activity: 95%
[24]
  Activity: 95%
